# Source: patent US6639123B1, “Melanocortin-3 receptor deficient cells, non-human trangenic animals and methods of selecting compounds which regulate body weight” (Merck & Co., Inc., priority 1999, dated 2003)
# Test system: male MC-3R^−/− and WT mice
# Assay: Peripheral MTII administration: 24-h food consumption
# Conditions: single intraperitoneal injection, 10 mg/kg, n=9, P<0.05
# Method: Peripheral MTII administration—For seven consecutive days, individually-housed 23-25-week-old male MC-3R^−/− (n=9) and WT (n=9) mice received an intraperitoneal (ip) injection of a sterile 0.9% NaCl vehicle solution approximately 30 min before the onset of the dark phase of the light cycle. At the same time on the eighth consecutive day of the study, mice received an ip injection of MTII at a dose of 10 mg/kg delivered in vehicle. Body and food (Teklad 7012) weights were measured and recorded daily approximately 15 min prior to injection.
substance,measurement,setting,value
MTII,reduction of food consumption over a 24-h period relative to a 2-day vehicle treatment baseline,MC-3R^−/− male mice,16.9±7.0%
same,reduction of food consumption over a 24-h period relative to a 2-day vehicle treatment baseline,WT male mice,11.1±4.3%
